In patent publication EP0003920A1, “Thieno (3,2-c)- and thieno (2,3-c)pyridines, process for their preparation and their therapeutical application” (OMNIUM FINANCIER AQUITAINE POUR L'HYGIENE ET LA SANTE - …, priority 1978, dated 1979):

Tests used:
rat [1] = assay: Localised carrageenan-induced oedema; assay type: in vivo; settings: 100 mg/kg oral at -1 h, 0 h, +2.5 h
Procedure: Une solution de carragénine (0,1 ml), à 1 %, est injectée dans les fléchisseurs métatarsiens de la patte postérieure droite du rat au temps 0. Les animaux du lot traité reçoivent en outre, par la voie orale, 100 mg par kg du dérivé à tester respectivement 1 heure avant, en même temps que l'injection de l'agent phlogogène, puis 1 heure et 2 heures et demi après. Les mesures qui sont effectuées à l'aide du micromètre de ROGH au temps 0, 1 heure, 2 heures, 3 heures et 5 heures après l'administration de la carragénine permettent de déterminer, en fonction du temps, le pourcentage d'activité anti-inflammatoire, par comparaison avec le lot témoin.

rat [2] = assay: Generalised ovalbumin oedema; assay type: in vivo; settings: po, 100 mg/kg per os 1 h before and together with ovalbumin
Procedure: Une injection intrapéritonéale simultanée de 1 ml d'ovalbumine et de 0,5 ml d'une solution aqueuse de bleu Evans à 1% est effectuée sur le rat. D'autre part, on administre per os aux animaux du lot traité 100 mg/kg du dérivé à tester une heure avant et en même temps que l'ovalbumine. L'intensité du phénomène ainsi provoqué est notée par un chiffre allant de 1 à 5 suivant la progression du syndrome inflammatoire. On détermine ainsi la moyenne de l'intensité oedémateuse et le pourcentage de diminution de la réaction oedémateuse par rapport au témoin, en fonction du temps.

souris = assay: Potentiation of an infra-hypnotic dose of sodium pentobarbital; assay type: in vivo; settings: mouse, 100 mg/kg oral, 30 min before i.p. infra-hypnotic dose of sodium pentobarbital; control 0
Procedure: Les composés de l'invention potentialisent de façon très nette l'action des hypnotiques. En effet, administrés à différents lots de souris par la voie orale, à la dose de 100 mg/ kg, trente minutes avant l'injection intrapéritonéale d'une dose infra-hypnotique de pentobarbital sodique, ils produisent par rapport aux animaux témoins non traités, une nette poten- tialisation de l'action du barbiturique.
En effet, le nombre de souris endormies, le temps moyen d'endormissement et la durée du sommeil sont nettement accrus dans les lots traités. Les résultats des composés les plus actifs sont rassemblés dans le Tableau I suivant.

rat [3] = assay: Anticonvulsant action against electroshock; assay type: in vivo; settings: 100 mg/kg oral, electroshock 30 min after treatment, score 0 to 4, untreated controls 4
Procedure: Cette action a été étudiée vis-à-vis des électrochocs. L'application chez le rat d'une stimulation électrique supérieure au seuil électro-convulsivant provoque des convulsions expérimentales. On compare alors chez les animaux témoins et chez les animaux traités, à la fois la présence et la durée de chacune des phases convulsives et l'intensité de la crise dans son ensemble.
On établit des séries de 10 rats par produit à tester et on administre par la voie orale, à chaque animal, 100 mg/kg de ce produit.
De chaque côté de la base de la queue de chaque […], une électrode Cat mise en place et 30 minutes après le traitement, l'animal placé dans une enceinte de verre reçoit pendant 50 millisecondes un courant sinusoïdal de 50 périodes/secondes de 120 volts.
Le passage du courant déclenche une crise convulsive dont chacune des phases (tonique, clonique, relachement musculaire) est chronométrée. L'intensité de la crise est alors notée de 0 à 4 selon la présence de chacune des phases et leur durée. Les produits de l'invention sont testés comparativement au phénobarbital qui possède une action anti-convulsivante marquée (intensité de la crise = 2), alors que chez les animaux témoins non traités c'est l'intensité maxima de 4 qui est obtenue.

[4] = Acute toxicity, intravenous LD50 (method of Miller and Tainter); set-up: species or system souris; settings: mouse, in vivo, read-out: DL50/24 H/kg de poids corporel
Procedure: En ce qui concerne la toxicité aigüe, la DL50/24 H/kg de poids corporel, déterminée chez la souris selon la méthode de Miller et Tainter pour la voie orale est supérieure à 400 mg pour tous les dérivés.
Selon la même méthode, la DL50/24 H/kg de poids corporel déterminée par la vole intraveineuse est, par exemple, de 154 mg pour le dérivé N° 1, de 89 mg pour le dérivé N° 2, de 184mg pour le dérivé N° 10, de 130 mg pour le dérivé N° 11, de 350mg pour le dérivé N° 12, de 65 mg pour le dérivé N° 18, de 90 mg pour le dérivé N° 22, de 96 mg pour le dérivé N° 24 et de 105 mg pour le dérivé N° 31.

[5] = 1 h after carrageenan, read-out: Pourcentage d'activité anti-inflammatoire 1ère heure
[6] = 2 h after carrageenan, read-out: Pourcentage d'activité anti-inflammatoire 2ème heure
[7] = 3 h after carrageenan, read-out: Pourcentage d'activité anti-inflammatoire 3ème heure
[8] = 5 h after carrageenan, read-out: Pourcentage d'activité anti-inflammatoire 5ème heure
[9] = 2 h after ovalbumin injection, read-out: Pourcentage d'activité anti-inflammatoire 2ème heure
[10] = 3 h after ovalbumin injection, read-out: Pourcentage d'activité anti-inflammatoire 3ème heure

Row | Structure (SMILES) | inhibition in vivo at 100 mg/kg (rat [1]; [5]) [%] | inhibition in vivo at 100 mg/kg (rat [1]; [6]) [%] | inhibition in vivo at 100 mg/kg (rat [1]; [7]) [%] | inhibition in vivo at 100 mg/kg (rat [1]; [8]) [%] | inhibition in vivo at 100 mg/kg (rat [2]; [9]) [%] | inhibition in vivo at 100 mg/kg (rat [2]; [10]) [%] | Pourcentage d'animaux endormis (souris) [%] | valeurs moyennes de l'intensité des crises (rat [3]) | LD50 at 24 h [4] [mg/kg]
1 | CNC(=O)c1cc2sccc2cn1 [Dérivé 1, Méthylaminocarbonyl-6 thiéno [3,2-c] pyridine] | 35 | 42 | 46 | 47 | 48 | 56 | 70 | 2,5 | 154
2 | CCN(CC)CCNC(=O)c1cc2sccc2cn1 [Dérivé 18, β-diéthylaminoéthylaminocarbonyl-6 thiéno [3,2-c] pyridine] | 41 | 46 | 50 | 55 | 49 | 58 | 80 |  | 65
3 | O=C(NCc1ccncc1)c1cc2sccc2cn1 [Dérivé 22, (pyridyl-4 méthyl)aminocarbonyl-6 thiéno[3,2-c]pyridine] | 41 | 47 | 51 | 55 | 51 | 58 | 70 |  | 90
4 | NC(=O)c1cc2sccc2cn1 [Dérivé 31, carbamoyl-6 thiéno [3,2-C] pyridine] |  |  |  |  |  |  |  | 2,5 | 105
